# Results taken from US10618903B2, “Heteroaryl substituted aminopyridine compounds” (BRISTOL-MYERS SQUIBB COMPANY, priority 2015, dated 2020).
# How the values were obtained:
# [1] = test system: Caco-2 cells; test: Caco Permeability Assay; assay type: in vitro ADME; conditions: Caco-2 cells, 3 μM compound
# [2] = target: IRAK4 (Homo sapiens (Human), UniProt Q9NWZ3); test: IRAK4 Inhibition Assay; assay type: biochemical; conditions: ATP 500 μM; IRAK4 0.6 nM
# Outline: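 Enzyme 0.6 nM, ATP 500 μM, FL-peptide 1.5 μM, DMSO 1.6%; HEPES pH 7.2/MgCl2/Brij 35/DTT buffer. RT, 60 min, EDTA stop. Mobility-shift product/substrate ratio; % inhib vs no-enzyme and vehicle controls.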
# [3] = test system: IL-6 levels in human whole blood stimulated with a TLR2 agonist; test: IRAK4 Whole Blood Assay (lipoteichoic acid/TLR2-stimulated IL-6); assay type: cell-based; conditions: lipoteichoic acid 10 μg/mL, IL-6 readout
# Outline: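 ACD-A-anticoagulated human whole blood was preincubated with compounds for 60 min at 37 °C under 5% CO2. It was then stimulated with 10 μg/mL lipoteichoic acid (final) in RPMI for 5 h. IL-6 in plasma supernatants was measured by flow cytometry bead assay.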
# [4] = Caco Permeability Assay; assay type: in vitro ADME; conditions: human, Caco-2, Caco-2 cells, 3 μM compound
# Sequence of IRAK4 (Q9NWZ3 whole entry): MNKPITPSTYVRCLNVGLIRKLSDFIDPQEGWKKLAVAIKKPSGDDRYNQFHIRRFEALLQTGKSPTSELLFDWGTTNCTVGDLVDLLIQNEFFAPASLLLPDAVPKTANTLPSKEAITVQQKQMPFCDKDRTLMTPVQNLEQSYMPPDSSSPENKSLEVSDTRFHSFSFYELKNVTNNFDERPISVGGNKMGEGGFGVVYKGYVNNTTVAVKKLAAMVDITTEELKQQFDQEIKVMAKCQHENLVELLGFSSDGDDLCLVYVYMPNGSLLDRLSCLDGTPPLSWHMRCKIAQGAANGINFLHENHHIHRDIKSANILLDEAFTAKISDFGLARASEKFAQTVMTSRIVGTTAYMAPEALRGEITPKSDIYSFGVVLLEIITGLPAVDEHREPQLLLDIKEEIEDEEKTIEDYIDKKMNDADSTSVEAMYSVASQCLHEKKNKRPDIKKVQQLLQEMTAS
Compound,Caco-2 Permeability [1] [×10⁻⁶ cm/s],IC50 [2] [nM],EC50 [3] [nM],EC50 ([3]; Homo sapiens) [nM],"Papp at 2 h, 3 µM [4] [×10⁻⁶ cm/s]"
"CCCNc1cc(-c2cnn3cc(Cl)cnc23)ncc1C(=O)NC[C@@H](F)C(C)(C)O [Example 66, (R)-6-(6-chloropyrazolo[1,5-a]pyrimidin-3-yl)-N-(2-fluoro-3-hydroxy-3-methylbutyl)-4-(propylamino)nicotinamide]",21.2,3,,,
"CC1(Nc2cc(-c3cnc4cc(Cl)cnn34)ncc2C(=O)NC[C@H](F)C(C)(C)O)CC1 [Example 207, (S)-6-(7-chloroimidazo[1,2-b]pyridazin-3-yl)-N-(2-fluoro-3-hydroxy-3-methylbutyl)-4-((1-methylcyclopropyl)amino)nicotinamide]",9.7,,260,,
"CC(C)(O)[C@H](F)CNC(=O)c1cnc(-c2cnc3cc(C#N)cnn23)cc1Nc1cnn(CCCF)c1 [Example 281, (R)-6-(7-cyanoimidazo[1,2-b]pyridazin-3-yl)-N-(2-fluoro-3-hydroxy-3-methylbutyl)-4-((1-(3-fluoropropyl)-1H-pyrazol-4-yl)amino)nicotinamide]",,2,,290,< 1.5
"CC(C)(O)[C@H](F)CNC(=O)c1cnc(-c2cnc3cc(C#N)cnn23)cc1Nc1cnn(C2CC2)c1 [Example 284, (R)-6-(7-cyanoimidazo[1,2-b]pyridazin-3-yl)-4-((1-cyclopropyl-1H-pyrazol-4-yl)amino)-N-(2-fluoro-3-hydroxy-3-methylbutyl)nicotinamide]",,2,,210,< 1.5
"CC(C)(O)[C@H]1CC[C@H](NC(=O)c2cnc(-c3cnc4cc(C#N)cnn34)cc2Nc2cnn(C3CC3)c2)CC1 [Example 286, 6-(7-cyanoimidazo[1,2-b]pyridazin-3-yl)-4-((1-cyclopropyl-1H-pyrazol-4-yl)amino)-N-((1r,4r)-4-(2-hydroxypropan-2-yl)cyclohexyl) nicotinamide]",,2,,180,5.5
"CC(C)n1cc(Nc2cc(-c3cnc4cc(C#N)cnn34)ncc2C(=O)NCCC(C)(C)O)cn1 [Example 287, 6-(7-cyanoimidazo[1,2-b]pyridazin-3-yl)-N-(3-hydroxy-3-methylbutyl)-4-((1-isopropyl-1H-pyrazol-4-yl)amino)nicotinamide]",,9,,450,1.8

# The remaining lines, values ahead:
Caco-2 Permeability [1] [×10⁻⁶ cm/s],IC50 [2] [nM],EC50 [3] [nM],EC50 ([3]; Homo sapiens) [nM],"Papp at 2 h, 3 µM [4] [×10⁻⁶ cm/s]",Compound
24.1,5,1970,,,"CC(C)(O)[C@H](F)CNC(=O)c1cnc(-c2cnn3cc(Cl)cnc23)cc1NCCC(F)(F)F [Example 46, (R)-6-(6-chloropyrazolo[1,5-a]pyrimidin-3-yl)-N-(2-fluoro-3-hydroxy-3-methylbutyl)-4-((3,3,3-trifluoropropyl)amino) nicotinamide]"
12,2,320,,,"CC(C)(O)[C@H](F)CNC(=O)c1cnc(-c2cnn3cc(Cl)cnc23)cc1NC1CCC(F)C1 (stereo partly drawn) [Example 84, 6-(6-chloropyrazolo[1,5-a]pyrimidin-3-yl)-N—((R)-2-fluoro-3-hydroxy-3-methylbutyl)-4-((3-fluorocyclopentyl)amino)nicotinamide]"
9.5,,,1000,,"CCCNc1cc(-c2cnn3cc(Cl)cnc23)ncc1C(=O)NC[C@@H](F)C(C)(C)O [Example 159, (R)-6-(6-chloropyrazolo[1,5-a]pyrimidin-3-yl)-N-(2-fluoro-3-hydroxy-3-methylbutyl)-4-(propylamino)nicotinamide]"
<1.5,2,130,,,"CC(C)(O)[C@H](F)CNC(=O)c1cnc(-c2cnn3cc(C#N)cnc23)cc1Nc1cnn(CC(F)(F)F)c1 [Example 241, (R)-6-(6-cyanopyrazolo[1,5-a]pyrimidin-3-yl)-N-(2-fluoro-3-hydroxy-3-methylbutyl)-4-((1-(2,2,2-trifluoroethyl)-1H-pyrazol-4-yl)amino)nicotinamide]"
